Structures can show the parent of a compound that is named as a salt. Where two headings read alike, the source gives them in different places.
System: BT474, H460, HCT116, HUVEC, LNCAP, MCF7, and PC3 cells
Assay: free test compound cell-based assay, 7 tumor cell panel (CellTiter-Glo)
Design: species or system Human
Settings: NSA = no significant activity; for IC50: Homo sapiens
Description: Heterocyclic-substituted bis-1,8-naphthalimide compounds of Formula XV in Table 2 were prepared and tested for in vitro activity against a panel of tumor cells (Example 110).
Alternatively, the efficacy of compounds of the invention can be assayed by the following free test compound cell-based assay protocol
• 1. Prepare each cell line (BT474, H460, HCT116, HUVEC, LNCaP, MCF7, and PC3) at 1 k cells/well in separate plates with Complete Media (CM): RPM1 […]+10% FBS (Fetal Bovine Serum)+1% of 200 mM L-Glutamine. Plate number depends on test compounds provided by submitter. • 2. Detach prospective cell lines by first removing the media. When the flask is empty of media, begin rinsing out individual flasks with 5 mL sterile PBS. Move the PBS around within the flask to rinse well. Decant the PBS and add aseptically 5 mL of Accutase/flask. Make sure the Accutase covers the entire flask. • 3. Immediately place the flask(s) into a 37° C. incubator to allow cells to detach for 5-7 minutes. • 4. Post 5-7 minutes, remove flask(s) from the incubator and begin harvesting the detached cells using a serological pipette. Pipette up and down along the back of the flask to facilitate cell detachment. Pipette the Accutase containing cells into a sterile 50 mL conical tube/cell line. Pipette 10 mL of sterile PBS and re-rinse the flask to obtain remaining cells and dispense it into the same 50 mL conical tube/cell line for a total volume of 15 mL/tube/cell line. • 5. After each cell line has been allocated to a designated tube, take out 100 μL/tube/cell line for the cell counts. While the cell counts are being calculated, centrifuge the 50 mL tubes at 1000 rpm at 4° C. with a high brake. • 6. When centrifugation and cell calculations are completed, decant excess liquid and resuspend the cell pellet(s) using 5 mL CM, depending on calculations. • 7. Using a 5 mL syringe and an 18 G ½ needle, strain the cells to help prevent aggregation. Further strain by using a […] cell filter to block out any huge aggregates not broken down by the needle. • 8. After cell straining and filtering, take out calculated amount for a 1 k cells/well into fresh media. Take the media containing cells and load 100 μL/well into a bottom tissue culture treated flat 96 well plate. • 9. Immediately place in a 37° C. incubator overnight to allow the cells to adhere to the tissue culture treated 96 well plates. Day 2: • 1. Test compounds are submitted at 10 mM in sterile DMSO. • 2. DMSO as negative control and a positive standard are used in every assay! • 3. Prepare a 1:1000 fold dilution for each test compound, control, and standard for a 10e-5 M starting point. Do a 1:100 first, then a 1:10. • 4. Prior to diluting samples, vortex the samples and the controls for a homogeneous mixture. Note any sample that will not solubilize and/or stay in suspension. • 5. When the samples are at 10e-5 M, vortex each tube well and spin down fluid to ensure sample remains in tacked. Manual Dilution Protocol: • 1. After the tubes are at a final 1:1000 (10e-5 M) dilution, load the first column of the microtube box with the prospective sample. Load DMSO and positive control in singlets. The test compounds are loaded in duplicates. Load the remaining empty microtube racks with 540 μL of media to prepare for a serial dilution of 1:10. • 2. Agitate and transfer 60 μL from column 1 into successive wells containing 540 μL of media (1:10). Therefore, transfer 60 μL of column 1 into 540 μL of column 2. Resuspend column 2 about 10-15×'s then transfer 60 μL from column 2 to column 3 etc. Automated Dilution Protocol: • 1. Once the tubes are at a final 1:1000 (10e-5 M), load the first column of the microtube box with the prospective sample. Load DMSO and positive control in singlets. The compounds are loaded in duplicates. Load the remaining empty microtube racks manually with 540 μL of media to prepare for the automated serial dilution of 1:10 (see above diagram). • 2. […]

[1] = average linear IC50 across the 7 tumor cell panel, read-out: Avg.
[2] = average log IC50 across the 7 tumor cell panel, read-out: Avg. (log IC50) (converted)

## Nc1ccc2c3c(cccc13)C(=O)N(CCNCCCNCCN1C(=O)c3cccc4c(N5CCOCC5)ccc(c34)C1=O)C2=O [Compound 56b, N, N′-(bis-aminoethyl-1,3-propanediamine)-4-amino, 4-morpholino-1,8 naphthalimide]
[1]
  IC50: 18.6 nM
[2]
  IC50: 18.6 nM

## O=C1c2cccc3c(N4CCNCC4)ccc(c23)C(=O)N1CCNCCNCCN1C(=O)c2cccc3c(N4CCNCC4)ccc(c23)C1=O [Compound 58b, N, N′-(bis-aminoethyl-1,2-ethanediamine)-bis-4-piperazino-1,8 naphthalimide]
[1]
  IC50: 26.9 nM
[2]
  IC50: 26.9 nM

## O=C1c2cccc3c(N4CCOCC4)ccc(c23)C(=O)N1CCNCCCN(CCCS)CCN1C(=O)c2cccc3c(N4CCOCC4)ccc(c23)C1=O [Compound 55a, N, N′-(N-3-mercaptopropyl, bis-aminoethyl-1,3-propanediamine)-bis-4-morpholino-1,8 naphthalimide]
[1]
  IC50: 57.5 nM
[2]
  IC50: 57.5 nM

## CCN(CCCNCCN1C(=O)c2cccc3c(N4CCOCC4)ccc(c23)C1=O)CCN1C(=O)c2cccc3c(N4CCOCC4)ccc(c23)C1=O [Compound 30a, N, N′-(N-ethyl, bis-aminoethyl-1,3-propanediamine)-bis-4-morpholino-1,8 naphthalimide]
[1]
  IC50: 3.98 nM
[2]
  IC50: 3.98 nM

## C[C@H](N)C(=O)N(CCCNCCN1C(=O)c2cccc3c(N4CCOCC4)ccc(c23)C1=O)CCN1C(=O)c2cccc3c(N4CCOCC4)ccc(c23)C1=O [Compound 54e, N, N′-(N-alanyl, bis-aminoethyl-1,3-propanediamine)-bis-4-morpholino-1,8 naphthalimide]
[1]
  IC50: 126 nM
[2]
  IC50: 126 nM

## O=C1c2cccc3c(N4CCOCC4)ccc(c23)C(=O)N1CCOCCOCCN1C(=O)c2cccc3c(N4CCOCC4)ccc(c23)C1=O [Compound 54b, N, N′-(3,6-dioxaoctanylene)-bis-4-morpholino-1,8 naphthalimide]
Average linear IC50 across the 7 tumor cell panel
  Avg. (nM): NSA
Average log IC50 across the 7 tumor cell panel
  Avg. (log IC50): NSA

## CN1CCN(c2ccc3c4c(cccc24)C(=O)N(CCNCCNCCN2C(=O)c4cccc5c(Br)ccc(c45)C2=O)C3=O)CC1 [Compound 61, N, N′-(bis-aminoethyl-1,2-ethanediamine)-4-piperazino,4-bromo-1,8 naphthalimide]
[1]
  IC50: 40.7 nM
[2]
  IC50: 40.7 nM

## O=C1c2cccc3c(-n4ccnc4)ccc(c23)C(=O)N1CCNCCCNCCN1C(=O)c2cccc3c(-n4ccnc4)ccc(c23)C1=O [Compound 24b, N, N′-(bis-aminoethyl-1,3-propanediamine)-bis-(4-N-imidazolyl)-1,8 naphthalimide]
[1]
  IC50: 0.41 nM
[2]
  IC50: 0.407 nM

## O=C1c2cccc3c(N4CCOCC4)ccc(c23)C(=O)N1CCNCCCNCCN1C(=O)c2cccc3c(N4CCOCC4)ccc(c23)C1=O [Compound 20, N, N′-(bis-aminoethyl-1,3-propanediamine)-bis-4-morpholino-1,8 naphthalimide]
[1]
  IC50: 2.57 nM
[2]
  IC50: 2.57 nM

## CC(=O)N1CCN(c2ccc3c4c(cccc24)C(=O)N(CCNCCCNCCN2C(=O)c4cccc5c(N(C)C)ccc(c45)C2=O)C3=O)CC1 [Compound 64, N, N′-(bis-aminoethyl-1,3-propanediamine)-4-(4-acetylpiperazino)-4-dimethylamino-1,8 naphthalimide]
[1]
  IC50: 1.82 nM
[2]
  IC50: 1.82 nM

## COCCOCCOCC(=O)N(CCCNCCN1C(=O)c2cccc3c(N4CCOCC4)ccc(c23)C1=O)CCN1C(=O)c2cccc3c(N4CCOCC4)ccc(c23)C1=O [Compound 54g, N, N′-(N-methylethoxyethoxyacetyloxy, bis-aminoethyl-1,3-propanediamine)-bis-4-morpholino-1,8 naphthalimide]
[1]
  IC50: 692 nM
[2]
  IC50: 692 nM

## O=C1c2cccc3c(O)ccc(c23)C(=O)N1CCNCCCNCCN1C(=O)c2cccc3c(-n4ccnc4)ccc(c23)C1=O [Compound 65, N, N′-(bis-aminoethyl-1,3-propanediamine)-4-(N-imidazolyl)-4-hydroxyl-1,8 naphthalimide]
[1]
  IC50: 288 nM
[2]
  IC50: 288 nM

## CC(=O)N(CCCNCCN1C(=O)c2cccc3c(N4CCOCC4)ccc(c23)C1=O)CCN1C(=O)c2cccc3c(N4CCOCC4)ccc(c23)C1=O [Compound 54c, N, N′-(N-acetyl, bis-aminoethyl-1,3-propanediamine)-bis-4-morpholino-1,8 naphthalimide]
[1]
  IC50: 191 nM
[2]
  IC50: 191 nM

## O=C(CCS)N(CCCNCCN1C(=O)c2cccc3c(N4CCOCC4)ccc(c23)C1=O)CCN1C(=O)c2cccc3c(N4CCOCC4)ccc(c23)C1=O [Compound 55c, N, N′-(N-3-mercaptopropionyl, bis-aminoethyl-1,3-propanediamine)-bis-4-morpholino-1,8 naphthalimide]
[1]
  IC50: 3720 nM
[2]
  IC50: 3720 nM

## CN1CCN(c2ccc3c4c(cccc24)C(=O)N(CCNCCNCCN2C(=O)c4cccc5c(N6CCN(C)CC6)ccc(c45)C2=O)C3=O)CC1 [Compound 60, N, N′-(bis-aminoethyl-1,2-ethanediamrne)-bis-4-(4-methylpiperazino)-1,8 naphthalimide]
[1]
  IC50: 1.05 nM
[2]
  IC50: 1.05 nM

## O=C1c2cccc3cc([N+](=O)[O-])cc(c23)C(=O)N1CCNCCCNCCN1C(=O)c2cccc3c(N4CCOCC4)ccc(c23)C1=O [Compound 56a, N, N′-(bis-aminoethyl-1,3-propanediamine)-3-nitro, 4-morpholino-1,8 naphthalimide]
[1]
  IC50: 1.62 nM
[2]
  IC50: 1.62 nM

## O=C1c2cccc3c(N4CCOCC4)ccc(c23)C(=O)N1CCCCNCCCN1C(=O)c2cccc3c(N4CCOCC4)ccc(c23)C1=O [Compound 45, N, N′-(4-aza-octanyl)-bis-4-morpholino-1,8 naphthalimide]
[1]
  IC50: 1510 nM
[2]
  IC50: 1510 nM

## O=C(CN1C(=O)c2cccc3c(N4CCOCC4)ccc(c23)C1=O)NCCCNCCN1C(=O)c2cccc3c(N4CCOCC4)ccc(c23)C1=O [Compound 41]
[1]
  IC50: 3.39 nM
[2]
  IC50: 3.39 nM

## O=C1c2cccc3c(N4CCNCC4)ccc(c23)C(=O)N1CCNCCCNCCN1C(=O)c2cccc3c(N4CCNCC4)ccc(c23)C1=O [Compound 58a, N, N′-(bis-aminoethyl-1,3-propanediamine)-bis-4-piperazino-1,8 naphthalimide]
[1]
  IC50: 1.7 nM
[2]
  IC50: 1.7 nM

## CC(=O)N1CCN(c2ccc3c4c(cccc24)C(=O)N(CCN2C=[N+](CCN4C(=O)c5cccc6c(N7CCN(C(C)=O)CC7)ccc(c56)C4=O)CC2)C3=O)CC1 [Compound 63b, N, N′-(bis-aminoethy-4,5-dihydro-imidazolium)-bis 4-(4-acetylpiperazino)-1,8 naphthaliinide]
[1]
  IC50: 251 nM
[2]
  IC50: 251 nM

## CCOC(=O)N(CCCNCCN1C(=O)c2cccc3c(N4CCOCC4)ccc(c23)C1=O)CCN1C(=O)c2cccc3c(N4CCOCC4)ccc(c23)C1=O [Compound 54f, N, N′-(N-carboethoxy, bis-aminoethyl-1,3-propanediamine)-bis-4-morpholino-1,8 naphthalimide]
[1]
  IC50: 692 nM
[2]
  IC50: 692 nM

## O=C1c2cccc3c(N4CCNCC4)ccc(c23)C(=O)N1CCN1C=[N+](CCN2C(=O)c3cccc4c(N5CCNCC5)ccc(c34)C2=O)CCC1 [Compound 59, N, N′-(bis-aminoetbyl-1,4,5,6-tetrahydropyrimidinium)-bis-4-piperazino-1,8 naphthalimide trifluoroacetate salt]
[1]
  IC50: 1.51 nM
[2]
  IC50: 1.51 nM

From US7947839B2, “Heterocyclic-substituted bis-1,8 naphthalimide compounds, antibody drug conjugates, and methods of use” (Genentech, Inc., priority 2004, dated 2011)
